According to US11819483B2, “Combination therapy to treat urea cycle disorders” (Baylor College of Medicine, priority 2017, dated 2023):
Read-outs that look alike come from different tables or passages of the source. Marks after values point to notes of the source that are not given here.

Assays:
[1] = day 4
[2] = Urinary excretion of phenylbutyrate, benzoate and their conjugated products; nitrogen conjugation in 24 h urine; settings: for Total N excreted as conjugated products, % test meal: fraction of nitrogen content of test meal; for efficacy of conjugation (percent of dose recovered as conjugate in 24 h urine): given as sole treatments, highest dose; for Conjugation efficacy: nitrogen conjugated divided by amount of drug provided
Description: (§1) This was a randomized, three-arm, crossover study. Each arm was completed over a four-day period with a washout period of at least 7 days between any two of the treatment arms (FIG. 1). […] The treatments were designed to provide isomolar amount of drugs and the total daily dose was administered in three equally divided doses.
(§2) On day 1 of study arm 1, detailed medical history review and physical examination were performed. Complete blood count, comprehensive metabolic panel, plasma ammonia, and urinalysis (safety laboratory measurements) were performed. Urine pregnancy test was performed on all females. Meals prepared at the CNRC to provide 0.8 g·kg^−1·day^−1 protein and 32 kcal·kg^−1·day^−1 were given for next three days. The standardized protein and caloric intake allowed for comparison of nitrogen excretion among the three arms. Subjects were randomized to a predetermined treatment sequence and the first dose of the appropriate medication was administered under supervision. Subjects took the study medication with meals for three days (08:00 breakfast; 13:00 lunch; 19:00 dinner) (FIG. 1). […] On day 3, subjects omitted the 19:00 dose of the medication to prevent interference with the analysis on day 4 from metabolite conjugates from the previous day. On day 4, fasting blood sample was obtained for the determination of plasma amino acids and urea concentrations, background isotopic enrichments, basic metabolic profile, complete blood count, and plasma concentrations of phenylbutyrate, benzoate, PAGN, and HA. Urine was collected for measurements of urea, phenylbutyrate, benzoate, PAGN, and HA. At 0 hours, the test meal containing half of the daily dietary allowance of protein (0.4 g·kg^−1) was provided by a commercial liquid meal replacement (Ensure Plus, Abbott, Abbot Park, Ill.) and ^15N labeled spirulina (40 mg·kg^−1; ISOTEC, Miamisburg, Ohio). […] A dose of 40 mg·kg^−1 labeled ^15N-labeled spirulina was estimated to result in dietary enrichment of ˜5 mole percent excess. The morning meal, which was ingested in ˜10 minutes, was followed by a dose of study medication and an intravenous bolus dose of urea tracer, [^13C^18O]urea (6 mmol/subject; ISOTEC, Miamisburg, Ohio). Blood samples to determine concentrations and isotopic enrichments of the drugs and their conjugated products, as well as amino acids and urea were collected every 30 minutes for the first four hours and then hourly between hours 4 and 8 (FIG. 1). Urine was collected in four 2-hour batched periods during the eight hour admission period. […] The procedures for the study arms 2 and 3 were identical to those performed in arm 1.
(§3) Plasma and urinary drugs and their conjugated products as well as urea and amino acids were determined by mass spectrometry and quantitated based on the dilution of labeled internal standards. Total urinary nitrogen was determined using the micro-Kjeldahl method.
Plasma and urinary phenylbutyrate, PAA, and benzoate were determined as their pentafluorobenzyl derivatives by NCI-GC-MS; . [^2H5] […] 4-phenylbutyric acids (C/D/N Isotopes, Quebec, Canada) were used as internal standards. Underivatized PAGN and HA were measured by HESI LC-MS/MS; [^2H5] PAGN and [^2H5] HA (C/D/N Isotopes, Quebec, Canada) were used as internal standards.
Accordingly, these background values were subtracted from the values obtained during the treatment with phenylbutyrate and benzoate. The total amount of nitrogen conjugated was expressed as fraction of the test meal, by dividing by the total nitrogen content of the test meal. The conjugation of dietary nitrogen was calculated as the amount of ^15N conjugated by multiplying the total amount of nitrogen conjugated by the respective ^15N enrichment. For PAGN, the labeling of the amino and amido group were considered.

[3] = Urea metabolism and total urinary nitrogen excretion; type: in vivo, human; design: Urinary urea-^15N: unit not given here; settings: for Urinary N: N intake 9.81 g/d; for Urea production: [^13C^18O]urea tracer, day 4; for ^15N as % of test meal: urinary urea ^15N
Description: as §1, §2, §3
Plasma amino acids concentrations and enrichments were determined by HESI LC-MS/MS. A cell free U-[^13C^15N] amino acid mix was used as internal standard. Total urinary nitrogen was determined using the micro-Kjeldahl method.

clinical = settings: human, in vivo
[4] = plasma
Description: On day 1 of study arm 1, detailed medical history review and physical examination were performed. Complete blood count, comprehensive metabolic panel, plasma ammonia, and urinalysis (safety laboratory measurements) were performed. Urine pregnancy test was performed on all females. Meals prepared at the CNRC to provide 0.8 g·kg^−1·day^−1 protein and 32 kcal·kg^−1·day^−1 were given for next three days. The standardized protein and caloric intake allowed for comparison of nitrogen excretion among the three arms. Subjects were randomized to a predetermined treatment sequence and the first dose of the appropriate medication was administered under supervision. Subjects took the study medication with meals for three days (08:00 breakfast; 13:00 lunch; 19:00 dinner) (FIG. 1). […] On day 3, subjects omitted the 19:00 dose of the medication to prevent interference with the analysis on day 4 from metabolite conjugates from the previous day. On day 4, fasting blood sample was obtained for the determination of plasma amino acids and urea concentrations, background isotopic enrichments, basic metabolic profile, complete blood count, and plasma concentrations of phenylbutyrate, benzoate, PAGN, and HA. […]
Plasma amino acids concentrations and enrichments were determined by HESI LC-MS/MS. […] Total urinary nitrogen was determined using the micro-Kjeldahl method.

[5] = 24 h urine, ^15N labeled test meal
[6] = 24 h urine, background subtracted

Row | Compound | urinary excretion of unconjugated drug ([2]; 24 h urine) | Total 15N in conjugated products, % test meal [2, 5] | Total N excreted as conjugated products, % test meal ([2]; 24 h urine) | efficacy of conjugation (percent of dose recovered as conjugate in 24 h urine) [2] | Conjugation efficacy ([2]; gram basis) | Conjugation efficacy ([2]; molar basis) | % N excreted from daily intake ([3]; 24 h urine) | Urea N as a % total urinary N ([3]; 24 h urine) | Urinary Urea N ([3]; 24 h urine) | Urinary N ([3]; 24 h urine) | Urea production [3] | ^15N as % of test meal ([3]; 24 h urine) | further results
1 | O=C([O-])c1ccccc1.[Na+] [NaBz, sodium benzoate] | negligible | 1.51 % test meal | 4.65 ^b % test meal | ~65% | 64.2^b mg N/g drug | 9.25^b mg N/mmol drug | 65.1% | 65.1% | 4.20 g/day | 6.38 g/day | 197 µmol/kg/h | 14.7% | Bz AUC0-8 ([1]; plasma benzoate, 0 to 8 h): 301.7 µmol/L; Bz Tmax ([1]; plasma benzoate): 1.6^b h; Bz Tmax ([1]; plasma benzoate, listed as benzoate): ~1.5 h; Benzoate Cmax and AUC0-8, NaBz arm relative to MIX arm ([1]; plasma): 4-5 times; Cmax ([1]; read-out: Bz Cmax, plasma benzoate): 217 µM; Urinary excretion of Bz ([2]; 24 h urine): 6.5 μmol/24 h; Urinary excretion of Bz, % of dose ([2]; 24 h urine): 0.02 % of dose; Urinary HA (Conjugated ^15N Products) [2, 5]: 253.9 μmol/24 h; Urinary excretion of HA [2, 6]: 16.4 mmol/24 h; Urinary excretion of HA, % of dose ([2]; 24 h urine, percent of benzoate dose recovered as HA): 66.1 % of dose
2 | O=C(O)Cc1ccccc1 [PAA, phenylacetate] | negligible | – | – | – | – | – | – | – | – | – | – | – | –
3 | O=C(O)CNC(=O)c1ccccc1 [hippuric acid] | – | – | – | – | – | – | – | – | – | – | – | – | Tmax (clinical): 2.2 h
4 | sodium phenylbutyrate [NaPB] | negligible | 1.62 % test meal | 8.74 ^a % test meal | ~65% | 92.5^ab mg N/g drug | 17.2^a mg N/mmol drug | 65.6% | 63.6% | 4.16 g/day | 6.47 g/day | 192 µmol/kg/h | 15.2% | leucine AUC0-8 ([4]; response to phenylbutyrate inclusion in the treatment, P=0.032): reduction; tryptophan AUC0-8 ([4]; response to phenylbutyrate, P<0.001): reduction; Total N excreted as conjugated products ([2]; 24 h urine): 30.7 mmol/24 h; Urinary excretion of PAA ([2]; 24 h urine): 40.3 μmol/24 h; Urinary excretion of PAA, % of dose ([2]; 24 h urine): 0.16 % of dose; Urinary excretion of PB ([2]; 24 h urine): 32.3 μmol/24 h; Urinary excretion of PB, % of dose ([2]; 24 h urine): 0.13 % of dose; Urinary 2&5-[^15N] PAGN [2, 5]: 38.9 μmol/24 h; Urinary 2-[^15N] PAGN [2, 5]: 43.9 μmol/24 h; Urinary excretion of PAGN [2, 6]: 15.3 mmol/24 h; Urinary excretion of PAGN, % of dose ([2]; 24 h urine, percent of phenylbutyrate dose recovered as PAGN): 61.5 % of dose; Urinary urea-^15N [3, 5]: 37.0
